CC50, MCC and EC50 data for 7 molecules are collected here from ChEMBL document CHEMBL1136504, “Novel bicyclic furanopyrimidines with dual anti-VZV and -HCMV activity” (Bioorg Med Chem Lett, 2003).

Where only a bound is given, the exact number is not on record here.

For test [1], the system named is HEL. Nature of the test: Concentration required against HEL cell proliferation. The conditions noted are these: Homo sapiens. It counts as functional.
The subject of test [2] is HEL. Put plainly: Minimal cytotoxic concentration required to cause a morphological alteration of human embryonic lung fibroblast(HEL) cell cultures. It counts as functional.
The test system of test [3] is Human betaherpesvirus 5. Put plainly: Antiviral activity evaluated against human cytomegalovirus (HCMV) AD169. It counts as functional, organism-based.
Test [4] concerns Human betaherpesvirus 5. Put plainly: Antiviral activity evaluated against human cytomegalovirus (HCMV) Davis. It counts as functional, organism-based.
The test system of test [5] is Human alphaherpesvirus 3. Nature of the test: Concentration required to give 50% inhibition of replication of VZV OKA in tissue culture. It counts as functional, organism-based.
Test [6] relates to Human alphaherpesvirus 3. Put plainly: Antiviral activity evaluated against Varicella Zoster virus (YS). It counts as functional, organism-based.
The test system of test [7] is Human alphaherpesvirus 3. Put plainly: Antiviral activity evaluated against thymidine kinase competent(TK+) Varicella Zoster virus (07). It counts as functional, organism-based.
Test [8] has as its system Human alphaherpesvirus 3. Put plainly: Antiviral activity evaluated against thymidine kinase deficient(TK-) Varicella Zoster virus (YS). It counts as functional, organism-based.

For the molecule `CCCCOCCCCCCCCCc1cc2cn([C@H]3C[C@H](O)[C@@H](CO)O3)c(=O)nc2o1`, in the test with HEL [1], the CC50 (commonly the concentration at which the toxic effect on the cells reaches its halfway point) is greater than 200 µM. The MCC in the test with HEL [2] amounted to 20 µM. Moreover, the EC50 – broadly, the concentration giving half of the maximal effect – was greater than 5 µM in the test on Human betaherpesvirus 5 [3]; greater than 5 µM with Human betaherpesvirus 5 [4]; 0.02 µM in the test on Human alphaherpesvirus 3 [5]; 0.03 µM in the test on Human alphaherpesvirus 3 [6]; greater than 5 µM in the test with Human alphaherpesvirus 3 [7]; greater than 5 µM in the test on Human alphaherpesvirus 3 [8].
With `O=c1nc2oc(CCCCCCCCCOCCCCCl)cc2cn1[C@H]1C[C@H](O)[C@@H](CO)O1`, the CC50 in the test with HEL [1] was greater than 200 µM. This molecule also displayed an MCC with HEL [2] of no less than 200 µM. Also, the EC50 with Human betaherpesvirus 5 [3] is 9.7 µM; in the test on Human betaherpesvirus 5 [4], 30 µM; in the test with Human alphaherpesvirus 3 [5], 0.05 µM; with Human alphaherpesvirus 3 [6] it was 0.03 µM; in the test with Human alphaherpesvirus 3 [7] it was no less than 200 µM; in the test on Human alphaherpesvirus 3 [8], no less than 50 µM.
In turn, `CC(C)CCOCCCCCCCCCc1cc2cn([C@H]3C[C@H](O)[C@@H](CO)O3)c(=O)nc2o1` displayed a CC50 in the test with HEL [1] greater than 200 µM. Also, the MCC in the test on HEL [2] came out at 10 µM. The half-maximal effective concentration (EC50) in the test on Human betaherpesvirus 5 [3] was greater than 5 µM; in the test on Human betaherpesvirus 5 [4], 5 µM; in the test with Human alphaherpesvirus 3 [5], 0.05 µM; in the test on Human alphaherpesvirus 3 [6], 0.06 µM; in the test with Human alphaherpesvirus 3 [7], greater than 5 µM; in the test on Human alphaherpesvirus 3 [8], greater than 5 µM.
`Nc1nc2c(ncn2COC(CO)CO)c(=O)[nH]1` [GANCICLOVIR] gave a CC50 with HEL [1] greater than 150 µM. Moreover, in the test with HEL [2], the MCC is greater than 150 µM. Besides, the results for the EC50 in the test with Human betaherpesvirus 5 [3] and in the test with Human betaherpesvirus 5 [4] were 4 µM and 5.7 µM, respectively.
The molecule `O=c1nc2oc(CCCCCCCCCOCC3CCCC3)cc2cn1[C@H]1C[C@H](O)[C@@H](CO)O1` registered a CC50 in the test on HEL [1] greater than 200 µM. For the same molecule, in the test on HEL [2], the MCC is no less than 5 µM. Moreover, the EC50 with Human betaherpesvirus 5 [3] is greater than 5 µM; in the test with Human betaherpesvirus 5 [4], 5 µM; in the test with Human alphaherpesvirus 3 [5], 0.09 µM; with Human alphaherpesvirus 3 [6], 0.1 µM; in the test on Human alphaherpesvirus 3 [7] it was greater than 5 µM; with Human alphaherpesvirus 3 [8] it was greater than 5 µM.
Take `CCCCCCCOCCc1cc2cn([C@H]3C[C@H](O)[C@@H](CO)O3)c(=O)nc2o1`: the EC50 in the test with Human alphaherpesvirus 3 [5] was 6 µM.
In turn, `CCCCCOCCCCCCCCCc1cc2cn([C@H]3C[C@H](O)[C@@H](CO)O3)c(=O)nc2o1` came in with a CC50 with HEL [1] greater than 200 µM. The MCC in the test with HEL [2] was determined as 10 µM. Also, the EC50 in the test with Human betaherpesvirus 5 [3] was greater than 5 µM; in the test on Human betaherpesvirus 5 [4] it was greater than 5 µM; in the test on Human alphaherpesvirus 3 [5] it was 0.01 µM; in the test on Human alphaherpesvirus 3 [6] it was 0.02 µM; with Human alphaherpesvirus 3 [7] it was greater than 5 µM; with Human alphaherpesvirus 3 [8], greater than 5 µM.
